Assay: Sensory evaluation of sweetness linger and taste by expert panel
Design: key: 0=no sweetness linger; 1=very slight sweetness linger; 2 slight sweetness linger; 3=moderate sweetness linger; 4=moderately high sweetness linger; 5=high sweetness linger
Conditions: scale 0-5
Method: In a particular embodiment, a panel of assessors is used to measure the reduction of sweetness linger. Briefly described, a panel of assessors (generally 8 to 12 individuals) is trained to evaluate sweetness perception and measure sweetness at several time points from when the sample is initially taken into the mouth until 3 minutes after it has been expectorated. […] A decrease in score for a time point measured after the sample has cleared the mouth indicates there has been a reduction in sweetness perception.
The panel of assessors may be trained using procedures well known to those of ordinary skill in the art. In a particular embodiment, the panel of assessors may be trained using the Spectrum™ Descriptive Analysis Method (Meilgaard et al, Sensory Evaluation Techniques, 3rd edition, Chapter 11). Desirably, the focus of training should be the recognition of and the measure of the basic tastes; specifically, sweet. In order to ensure accuracy and reproducibility of results, each assessor should repeat the measure of the reduction of sweetness linger about three to about five times per sample, taking at least a five minute break between each repetition and/or sample and rinsing well with water to clear the mouth.
Generally, the method of measuring sweetness comprises taking a 10 mL sample into the mouth, holding the sample in the mouth for 5 seconds and gently swirling the sample in the mouth, rating the sweetness intensity perceived at 5 seconds, expectorating the sample (without swallowing following expectorating the sample), rinsing with one mouthful of water (e.g., vigorously moving water in mouth as if with mouth wash) and expectorating the rinse water, rating the sweetness intensity perceived immediately upon expectorating the rinse water, waiting 45 seconds and, while waiting those 45 seconds, identifying the time of maximum perceived sweetness intensity and rating the sweetness intensity at that time (moving the mouth normally and swallowing as needed), rating the sweetness intensity after another 10 seconds, rating the sweetness intensity after another 60 seconds (cumulative 120 seconds after rinse), and rating the sweetness intensity after still another 60 seconds (cumulative 180 seconds after rinse). Between samples take a 5 minute break, rinsing well with water to clear the mouth.
Sensory evaluation of the samples prepared in Example Set G was carried out under the following protocol, similar to that described hereinabove. In this test protocol, none of the samples were swallowed. […] Immediately upon sensing maximal sweetness, the sample was expectorated, the mouth was rinsed with water and the rate of sweetness decay (“Sweetness Linger”) was measured, where attention was focused on the sweetness 3-4 min after the water rinse. […]

[1] = Example Set G, citric acid/potassium citrate composition equivalent to diet lemon-lime beverage, sweetness 3-4 min after water rinse
[2] = Example Set H, carbon-treated water with phosphoric acid (75%), pH 2.4-2.5

Row | Molecule | Sweetness linger [1] | Sweetness linger [2]
1 | OC[C@H]1O[C@@](CO)(O[C@H]2O[C@H](CO)[C@@H](O)[C@H](O)[C@H]2O)[C@@H](O)[C@@H]1O [sugar, sucrose] | 0 | 0
2 | rebaudioside A | 5 | 5

— patent publication US8945652B2, “High-potency sweetener for weight management and compositions sweetened therewith” (The Coca-Cola Company, priority 2005, dated 2015)
